Source: patent US11566057B2, “Long-acting co-agonists of the glucagon and GLP-1 receptors” (Merck Sharp & Dohme Corp., priority 2017, dated 2023)
Like-named read-outs stand apart in the source and are kept apart here. Numbered stars: 1 amine (or outer) side, 2 acyl side, 3 side chain; on linkers, the order of the positions; unused ones are H or OH. Square brackets hold non-standard residues; d marks the D form. Side chains are listed from the residue outwards. Peptide text beside a SMILES is read from it. * marks the point of attachment. C20 diacid = O=C(O)CCCCCCCCCCCCCCCCCCC(=O)*; Phe(4-CH2NH2) = NCc1ccc(C[C@H](N)C(=O)O)cc1; C18 diacid = O=C(O)CCCCCCCCCCCCCCCCC(=O)*; C16 diacid = O=C(O)CCCCCCCCCCCCCCC(=O)*; γGlu = O=C(O)[C@H](CCC(=O)[*:2])N[*:1]; Met(O2) = CS(=O)(=O)CC[C@H](N)C(=O)O; αMeD = C[C@](N)(CC(=O)O)C(=O)O; αMeS = C[C@](N)(CO)C(=O)O; AEEA = NCCOCCOCC(=O)O; Aib = CC(C)(N)C(=O)O

Experiments:
human GLP1R = molecular target: T1, human GLP1R (Homo sapiens, UniProt P43220); experiment: cAMP activity assay at the GLP-1 receptor (GLP1R); format: cell-based; conditions: summary statement: EC50 at each of the glucagon and GLP-1 receptors; read-out: EC50 at the GLP-1 receptor
T1 construct: expressed in transfected cells; growth medium holds Blasticidin and Hygromycin
How it was run: (§1)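 Peptides serially diluted from DMSO (10 points) and added to frozen-stock cells bearing human GLP1R (10,000 cells/well) or GCGR (30,000 cells/well), 1 h at RT, dark. EC50 by four-parameter logistic fit of HitHunter cAMPXS luminescence, read following overnight RT incubation.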

human GCGR = molecular target: T2, human GCGR (Homo sapiens, UniProt P47871); experiment: cAMP activity assay at the Glucagon receptor (GCGR); format: cell-based; conditions: for hGCGR/hGLP1R (hTone): ratio of GCGR EC50 to GLP1R EC50
T2 construct: expressed in transfected cells; growth medium holds Blasticidin and Hygromycin
How it was run: as §1

[1] = cells expressing human GCGR, cAMP production, buffer with or without 20% human serum (not stated which), read-out: GCGR EC50 human
[2] = summary statement: EC50 at each of the glucagon and GLP-1 receptors, read-out: EC50 at the glucagon receptor

T2 sequence (P47871 26-477): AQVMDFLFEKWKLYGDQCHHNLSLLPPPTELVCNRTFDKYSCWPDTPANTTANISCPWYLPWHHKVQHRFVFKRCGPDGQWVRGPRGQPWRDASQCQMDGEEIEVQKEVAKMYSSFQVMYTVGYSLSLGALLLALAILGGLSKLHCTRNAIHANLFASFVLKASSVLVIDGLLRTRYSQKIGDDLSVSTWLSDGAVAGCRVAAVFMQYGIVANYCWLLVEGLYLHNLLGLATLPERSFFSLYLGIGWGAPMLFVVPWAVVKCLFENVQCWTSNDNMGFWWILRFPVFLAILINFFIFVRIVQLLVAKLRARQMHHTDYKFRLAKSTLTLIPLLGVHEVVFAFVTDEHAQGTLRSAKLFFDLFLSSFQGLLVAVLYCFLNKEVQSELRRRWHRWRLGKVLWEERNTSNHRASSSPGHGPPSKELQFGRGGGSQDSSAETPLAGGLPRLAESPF
T1 sequence (P43220 24-463): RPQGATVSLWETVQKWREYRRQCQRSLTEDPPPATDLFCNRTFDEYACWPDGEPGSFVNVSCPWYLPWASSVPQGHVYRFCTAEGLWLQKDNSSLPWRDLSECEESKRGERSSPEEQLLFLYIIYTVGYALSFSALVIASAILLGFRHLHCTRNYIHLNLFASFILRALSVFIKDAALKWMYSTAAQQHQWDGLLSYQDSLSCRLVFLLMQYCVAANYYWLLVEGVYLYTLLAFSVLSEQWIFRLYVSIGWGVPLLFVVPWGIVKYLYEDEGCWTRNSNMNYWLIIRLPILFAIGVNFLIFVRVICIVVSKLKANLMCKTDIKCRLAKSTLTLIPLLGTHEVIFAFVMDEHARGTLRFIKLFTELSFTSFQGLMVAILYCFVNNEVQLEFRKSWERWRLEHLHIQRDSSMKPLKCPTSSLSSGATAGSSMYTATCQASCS

| SMILES | EC50 (human GLP1R) [nM] | EC50 (human GCGR; [1]) [nM] | hGCGR/hGLP1R (hTone) (human GCGR) | EC50 (human GCGR; [2]) [nM] |
| --- | --- | --- | --- | --- |
| CC(C)C[C@H](NC(=O)[C@H](Cc1ccc(O)cc1)NC(=O)[C@H](CCCCN)NC(=O)[C@H](CO)NC(=O)[C@H](Cc1ccc(O)cc1)NC(=O)[C@H](CC(=O)O)NC(=O)[C@H](CO)NC(=O)[C@@H](NC(=O)[C@H](Cc1ccccc1)NC(=O)[C@@H](NC(=O)CNC(=O)[C@H](CCC(N)=O)NC(=O)C(C)(C)NC(=O)[C@@H](N)Cc1c[nH]cn1)[C@@H](C)O)[C@@H](C)O)C(=O)N[C@@H](CC(=O)O)C(=O)N[C@@H](C)C(=O)N[C@@H](CCCNC(=N)N)C(=O)N[C@@H](C)C(=O)N[C@@H](C)C(=O)N[C@@H](CCC(N)=O)C(=O)N[C@@H](CC(=O)O)C(=O)N[C@@H](Cc1ccccc1)C(=O)N[C@H](C(=O)N[C@@H](CCCCNC(=O)COCCOCCNC(=O)CC[C@H](NC(=O)CCCCCCCCCCCCCCCCC(=O)O)C(=O)O)C(=O)N[C@@H](Cc1c[nH]c2ccccc12)C(=O)N[C@@H](CC(C)C)C(=O)N[C@@H](CCS(C)(=O)=O)C(=O)N[C@@H](CC(=O)O)C(=O)N[C@H](C(N)=O)[C@@H](C)O)C(C)C [TP637] (H-H[Aib]QGTFTSDYSKYLDARAAQDFVK([AEEA-γGlu-C18 diacid])WL[Met(O2)]DT-NH2; N-terminus assumed) | < 5 | – | 1.8 | < 5 |
| CC(C)C[C@H](NC(=O)[C@H](Cc1ccc(O)cc1)NC(=O)[C@H](CCCCN)NC(=O)[C@H](CO)NC(=O)[C@H](Cc1ccc(O)cc1)NC(=O)[C@H](CC(=O)O)NC(=O)[C@H](CO)NC(=O)[C@@H](NC(=O)[C@H](Cc1ccccc1)NC(=O)[C@@H](NC(=O)CNC(=O)[C@H](CCC(N)=O)NC(=O)C(C)(C)NC(=O)[C@@H](N)Cc1c[nH]cn1)[C@@H](C)O)[C@@H](C)O)C(=O)N[C@@H](CC(=O)O)C(=O)N[C@@H](C)C(=O)N[C@@H](CCCNC(=N)N)C(=O)N[C@@H](C)C(=O)N[C@@H](C)C(=O)N[C@@H](CCCCNC(=O)COCCOCCNC(=O)COCCOCCNC(=O)CC[C@H](NC(=O)CCCCCCCCCCCCCCC(=O)O)C(=O)O)C(=O)N[C@@H](CCC(=O)O)C(=O)N[C@@H](Cc1ccccc1)C(=O)N[C@H](C(=O)N[C@@H](CCC(N)=O)C(=O)N[C@@H](Cc1c[nH]c2ccccc12)C(=O)N[C@@H](CC(C)C)C(=O)N[C@@H](CCS(C)(=O)=O)C(=O)N[C@@H](CC(=O)O)C(=O)N[C@H](C(N)=O)[C@@H](C)O)C(C)C [TP812] (H-H[Aib]QGTFTSDYSKYLDARAAK([AEEA-AEEA-γGlu-C16 diacid])EFVQWL[Met(O2)]DT-NH2) | < 5 | 0.2 | 2.3 | < 5 |
| CC(C)C[C@H](NC(=O)[C@H](Cc1ccc(O)cc1)NC(=O)[C@H](CCCCN)NC(=O)[C@H](CO)NC(=O)[C@H](Cc1ccc(O)cc1)NC(=O)[C@H](CC(=O)O)NC(=O)[C@H](CO)NC(=O)[C@@H](NC(=O)[C@H](Cc1ccccc1)NC(=O)[C@@H](NC(=O)CNC(=O)[C@H](CCC(N)=O)NC(=O)C(C)(C)NC(=O)[C@@H](N)Cc1c[nH]cn1)[C@@H](C)O)[C@@H](C)O)C(=O)N[C@@H](CC(=O)O)C(=O)N[C@@H](C)C(=O)N[C@@H](CCCNC(=N)N)C(=O)N[C@@H](C)C(=O)N[C@@H](C)C(=O)N[C@@H](CCC(N)=O)C(=O)N[C@@H](CC(=O)O)C(=O)N[C@@H](Cc1ccccc1)C(=O)N[C@H](C(=O)N[C@@H](Cc1ccc(CNC(=O)COCCOCCNC(=O)COCCOCCNC(=O)CC[C@H](NC(=O)CCCCCCCCCCCCCCCCCCC(=O)O)C(=O)O)cc1)C(=O)N[C@@H](Cc1c[nH]c2ccccc12)C(=O)N[C@@H](CC(C)C)C(=O)N[C@@H](CC(C)C)C(=O)N[C@@H](CC(=O)O)C(=O)N[C@H](C(N)=O)[C@@H](C)O)C(C)C [TP584] (H-H[Aib]QGTFTSDYSKYLDARAAQDFV[Phe(4-CH2NH2)]([AEEA-AEEA-γGlu-C20 diacid])WLLDT-NH2) | < 5 | – | 4.6 | < 5 |

Further lines, results first:

| EC50 (human GLP1R) [nM] | EC50 (human GCGR; [1]) [nM] | hGCGR/hGLP1R (hTone) (human GCGR) | EC50 (human GCGR; [2]) [nM] | SMILES |
| --- | --- | --- | --- | --- |
| < 5 | 1.09 | 2.4 | < 5 | CC(C)C[C@H](NC(=O)[C@H](Cc1ccc(O)cc1)NC(=O)[C@H](CCCCN)NC(=O)[C@H](CO)NC(=O)[C@H](Cc1ccc(CNC(=O)COCCOCCNC(=O)COCCOCCNC(=O)CC[C@H](NC(=O)CCCCCCCCCCCCCCCCCCC(=O)O)C(=O)O)cc1)NC(=O)[C@H](CC(=O)O)NC(=O)[C@H](CO)NC(=O)[C@@H](NC(=O)[C@H](Cc1ccccc1)NC(=O)[C@@H](NC(=O)CNC(=O)[C@H](CCC(N)=O)NC(=O)C(C)(C)NC(=O)[C@@H](N)Cc1c[nH]cn1)[C@@H](C)O)[C@@H](C)O)C(=O)N[C@@H](CC(=O)O)C(=O)N[C@@H](C)C(=O)N[C@@H](CCCNC(=N)N)C(=O)N[C@@H](C)C(=O)N[C@@H](C)C(=O)N[C@@H](CCC(N)=O)C(=O)N[C@@H](CC(=O)O)C(=O)N[C@@H](Cc1ccccc1)C(=O)N[C@H](C(=O)N[C@@H](CCC(N)=O)C(=O)N[C@@H](Cc1c[nH]c2ccccc12)C(=O)N[C@@H](CC(C)C)C(=O)N[C@@H](CCS(C)(=O)=O)C(=O)N[C@@H](CC(=O)O)C(=O)N[C@H](C(N)=O)[C@@H](C)O)C(C)C [TP580] (H-H[Aib]QGTFTSD[Phe(4-CH2NH2)]([AEEA-AEEA-γGlu-C20 diacid])SKYLDARAAQDFVQWL[Met(O2)]DT-NH2; N-terminus assumed) |
| < 5 | 0.86 | 0.6 | < 5 | CC(C)C[C@H](NC(=O)[C@H](Cc1ccc(O)cc1)NC(=O)[C@H](CCCCN)NC(=O)[C@H](CO)NC(=O)[C@H](Cc1ccc(O)cc1)NC(=O)[C@H](CC(=O)O)NC(=O)[C@H](CO)NC(=O)[C@@H](NC(=O)[C@H](Cc1ccccc1)NC(=O)[C@@H](NC(=O)CNC(=O)[C@H](CCC(N)=O)NC(=O)[C@](C)(CO)NC(=O)[C@@H](N)Cc1c[nH]cn1)[C@@H](C)O)[C@@H](C)O)C(=O)N[C@@H](CC(=O)O)C(=O)N[C@@H](C)C(=O)N[C@@H](CCCNC(=N)N)C(=O)N[C@@H](C)C(=O)N[C@@H](C)C(=O)N[C@@H](CCCCNC(=O)COCCOCCNC(=O)COCCOCCNC(=O)CC[C@H](NC(=O)CCCCCCCCCCCCCCC(=O)O)C(=O)O)C(=O)N[C@@H](CC(=O)O)C(=O)N[C@@H](Cc1ccccc1)C(=O)N[C@H](C(=O)N[C@@H](CCC(N)=O)C(=O)N[C@@H](Cc1c[nH]c2ccccc12)C(=O)N[C@@H](CC(C)C)C(=O)N[C@@H](CCS(C)(=O)=O)C(=O)N[C@@](C)(CC(=O)O)C(=O)N[C@H](C(N)=O)[C@@H](C)O)C(C)C [TP614] (H-H[αMeS]QGTFTSDYSKYLDARAAK([AEEA-AEEA-γGlu-C16 diacid])DFVQWL[Met(O2)][αMeD]T-NH2; N-terminus assumed) |
| < 5 | – | 0.4 | < 5 | CC(C)C[C@H](NC(=O)[C@H](Cc1ccc(O)cc1)NC(=O)[C@H](CCCCN)NC(=O)[C@H](CO)NC(=O)[C@H](Cc1ccc(CNC(=O)COCCOCCNC(=O)CC[C@H](NC(=O)CCCCCCCCCCCCCCC(=O)O)C(=O)O)cc1)NC(=O)[C@H](CC(=O)O)NC(=O)[C@H](CO)NC(=O)[C@@H](NC(=O)[C@H](Cc1ccccc1)NC(=O)[C@@H](NC(=O)CNC(=O)[C@H](CCC(N)=O)NC(=O)C(C)(C)NC(=O)[C@@H](N)Cc1c[nH]cn1)[C@@H](C)O)[C@@H](C)O)C(=O)N[C@@H](CC(=O)O)C(=O)N[C@@H](C)C(=O)N[C@@H](CCCNC(=N)N)C(=O)N[C@@H](C)C(=O)N[C@@H](C)C(=O)N[C@@H](CCC(N)=O)C(=O)N[C@@H](CC(=O)O)C(=O)N[C@@H](Cc1ccccc1)C(=O)N[C@H](C(=O)N[C@@H](CCC(N)=O)C(=O)N[C@@H](Cc1c[nH]c2ccccc12)C(=O)N[C@@H](CC(C)C)C(=O)N[C@@H](CCS(C)(=O)=O)C(=O)N[C@@H](CC(=O)O)C(=O)N[C@H](C(N)=O)[C@@H](C)O)C(C)C [TP622] (H-H[Aib]QGTFTSD[Phe(4-CH2NH2)]([AEEA-γGlu-C16 diacid])SKYLDARAAQDFVQWL[Met(O2)]DT-NH2; N-terminus assumed) |
| < 5 | – | 1.1 | < 5 | CC(C)C[C@H](NC(=O)[C@H](Cc1ccc(O)cc1)NC(=O)[C@H](CCCCN)NC(=O)[C@H](CO)NC(=O)[C@H](Cc1ccc(CNC(=O)COCCOCCNC(=O)COCCOCCNC(=O)CC[C@H](NC(=O)CCCCCCCCCCCCCCCCC(=O)O)C(=O)O)cc1)NC(=O)[C@H](CC(=O)O)NC(=O)[C@H](CO)NC(=O)[C@@H](NC(=O)[C@H](Cc1ccccc1)NC(=O)[C@@H](NC(=O)CNC(=O)[C@H](CCC(N)=O)NC(=O)C(C)(C)NC(=O)[C@@H](N)Cc1c[nH]cn1)[C@@H](C)O)[C@@H](C)O)C(=O)N[C@@H](CC(=O)O)C(=O)N[C@@H](C)C(=O)N[C@@H](CCCNC(=N)N)C(=O)N[C@@H](C)C(=O)N[C@@H](C)C(=O)N[C@@H](CCC(N)=O)C(=O)N[C@@H](CC(=O)O)C(=O)N[C@@H](Cc1ccccc1)C(=O)N[C@H](C(=O)N[C@@H](CCC(N)=O)C(=O)N[C@@H](Cc1c[nH]c2ccccc12)C(=O)N[C@@H](CC(C)C)C(=O)N[C@@H](CCS(C)(=O)=O)C(=O)N[C@@](C)(CC(=O)O)C(=O)N[C@H](C(N)=O)[C@@H](C)O)C(C)C [TP624] (H-H[Aib]QGTFTSD[Phe(4-CH2NH2)]([AEEA-AEEA-γGlu-C18 diacid])SKYLDARAAQDFVQWL[Met(O2)][αMeD]T-NH2; N-terminus assumed) |
